Laboratory results taken from patent publication US12692274B2, “Tetrahydroisoquinoline derivatives for the treatment of red blood disorders and inflammatory diseases” (Sanofi, priority 2020, dated 2026).
Several values for one entry are separate records, joined by “and”; a condition that tells them apart may be missing. Equal values may be shown once.

target: HIS-Keap1 full length / Biotin-Nrf2 (16-mer) (Homo sapiens, UniProt Q14145); test: biochemical; conditions: not given
Sequence (Q14145 whole entry): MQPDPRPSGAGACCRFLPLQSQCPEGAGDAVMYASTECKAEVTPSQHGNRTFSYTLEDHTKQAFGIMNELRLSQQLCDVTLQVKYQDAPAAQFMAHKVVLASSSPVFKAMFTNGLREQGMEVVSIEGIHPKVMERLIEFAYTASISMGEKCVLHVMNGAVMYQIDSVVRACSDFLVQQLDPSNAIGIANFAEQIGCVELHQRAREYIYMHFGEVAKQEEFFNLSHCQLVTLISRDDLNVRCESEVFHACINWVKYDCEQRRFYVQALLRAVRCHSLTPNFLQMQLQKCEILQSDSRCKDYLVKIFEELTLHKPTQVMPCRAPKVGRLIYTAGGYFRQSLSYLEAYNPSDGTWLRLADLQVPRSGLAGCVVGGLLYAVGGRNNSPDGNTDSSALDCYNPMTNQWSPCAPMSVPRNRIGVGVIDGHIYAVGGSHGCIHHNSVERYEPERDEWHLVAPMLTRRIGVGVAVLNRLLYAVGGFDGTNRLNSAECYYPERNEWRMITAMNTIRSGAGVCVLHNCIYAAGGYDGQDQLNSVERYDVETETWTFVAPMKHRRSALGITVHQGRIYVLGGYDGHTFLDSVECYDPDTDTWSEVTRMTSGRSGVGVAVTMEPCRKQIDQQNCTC

SMILES	IC50
O=C(O)CC1c2ccc(nc2)OCCCCOc2cc(F)c(c(F)c2)C(=O)N2CCc3ccc1cc3C2 (stereo not drawn) [Compound 210]	3.7 nM and 4 nM
O=C(O)CC1c2ccc(nc2)OCCCCOc2ccc(cc2Cl)C(=O)N2CCc3ccc1cc3C2 (stereo not drawn) [Compound 212]	7.7 nM and 5.7 nM
O=C(O)CC1c2ccc3c(c2)CN(CC3)C(=O)c2ncc(cc2F)OCCCCCCn2nnc3c(Cl)c1ccc32 (stereo not drawn) [Compound 213]	1.5 nM and 1.6 nM
O=C(O)CC1c2ccc3c(c2)CN(CC3)C(=O)c2ccc(cn2)OCCCCCCn2nnc3c(Cl)c1ccc32 (stereo not drawn) [Compound 214]	2.3 nM and 2.1 nM
O=C(O)CC1c2ccc3c(c2)CN(CC3)C(=O)c2ncc(cc2F)CCCCCn2nnc3c(Cl)c1ccc32 (stereo not drawn) [Compound 215]	1 nM and 1.1 nM
Cc1c2cnc3c1nnn3CCCCCCc1ccc(cc1)C(=O)N1CCc3ccc(cc3C1)C2CC(=O)O (stereo not drawn) [Compound 216]	2.1 nM and 2.3 nM
Cc1c2ccc3c1nnn3CCCCCCOc1cnc(c(F)c1)C(=O)N1CCc3ccc(cc3C1)C2CC(=O)O (stereo not drawn) [Compound 217]	1.9 nM and 2.1 nM
Cc1cc2ccc1C(=O)N1CCc3ccc(cc3C1)C(CC(=O)O)c1cnc3c(nnn3CCCCCCO2)c1C (stereo not drawn) [Compound 218]	0.8 nM
Cc1c2ccc3c1nnn3CCCCCc1cnc(c(F)c1)C(=O)N1CCc3ccc(cc3C1)C2CC(=O)O (stereo not drawn) [Compound 219]	1.3 nM and 1.5 nM

test system: NQO1 activation in BEAS-2B cells; test: BEAS-2B cellular MTT assay of NQO1 activation, 0.3% HSA; format: cell-based; conditions: BEAS+, read-out: BEAS+ EC50
Summary of the method: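 MTT read-out in BEAS-2B cells grown in BEBM with SingleQuots, no GA-1000, kept below 70% confluence; plates coated with collagen, with 0.3% or 0% HSA medium, seeded to 95-100% confluency at 48 h, 37 °C, 5% CO2.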

SMILES	EC50 [nM]
O=C(O)CC1c2ccc(nc2)OCCCCOc2cc(F)c(c(F)c2)C(=O)N2CCc3ccc1cc3C2 (stereo not drawn) [Compound 210]	845
O=C(O)CC1c2ccc(nc2)OCCCCOc2ccc(cc2Cl)C(=O)N2CCc3ccc1cc3C2 (stereo not drawn) [Compound 212]	811
O=C(O)CC1c2ccc3c(c2)CN(CC3)C(=O)c2ncc(cc2F)OCCCCCCn2nnc3c(Cl)c1ccc32 (stereo not drawn) [Compound 213]	126
O=C(O)CC1c2ccc3c(c2)CN(CC3)C(=O)c2ccc(cn2)OCCCCCCn2nnc3c(Cl)c1ccc32 (stereo not drawn) [Compound 214]	241
O=C(O)CC1c2ccc3c(c2)CN(CC3)C(=O)c2ncc(cc2F)CCCCCn2nnc3c(Cl)c1ccc32 (stereo not drawn) [Compound 215]	310
Cc1c2cnc3c1nnn3CCCCCCc1ccc(cc1)C(=O)N1CCc3ccc(cc3C1)C2CC(=O)O (stereo not drawn) [Compound 216]	28.2
Cc1c2ccc3c1nnn3CCCCCCOc1cnc(c(F)c1)C(=O)N1CCc3ccc(cc3C1)C2CC(=O)O (stereo not drawn) [Compound 217]	301
Cc1cc2ccc1C(=O)N1CCc3ccc(cc3C1)C(CC(=O)O)c1cnc3c(nnn3CCCCCCO2)c1C (stereo not drawn) [Compound 218]	37.5
Cc1c2ccc3c1nnn3CCCCCc1cnc(c(F)c1)C(=O)N1CCc3ccc(cc3C1)C2CC(=O)O (stereo not drawn) [Compound 219]	208

same assay, conditions: Homo sapiens, BEAS+, read-out: BEAS+ EC50

SMILES	EC50 [nM]
O=C(O)CC1c2ccc(nc2)OCCCCOc2cc(F)c(c(F)c2)C(=O)N2CCc3ccc1cc3C2 (stereo not drawn) [Compound 210]	1020
O=C(O)CC1c2ccc(nc2)OCCCCOc2ccc(cc2Cl)C(=O)N2CCc3ccc1cc3C2 (stereo not drawn) [Compound 212]	606
O=C(O)CC1c2ccc3c(c2)CN(CC3)C(=O)c2ncc(cc2F)OCCCCCCn2nnc3c(Cl)c1ccc32 (stereo not drawn) [Compound 213]	147
O=C(O)CC1c2ccc3c(c2)CN(CC3)C(=O)c2ccc(cn2)OCCCCCCn2nnc3c(Cl)c1ccc32 (stereo not drawn) [Compound 214]	234
O=C(O)CC1c2ccc3c(c2)CN(CC3)C(=O)c2ncc(cc2F)CCCCCn2nnc3c(Cl)c1ccc32 (stereo not drawn) [Compound 215]	349
Cc1c2cnc3c1nnn3CCCCCCc1ccc(cc1)C(=O)N1CCc3ccc(cc3C1)C2CC(=O)O (stereo not drawn) [Compound 216]	35.8
Cc1c2ccc3c1nnn3CCCCCCOc1cnc(c(F)c1)C(=O)N1CCc3ccc(cc3C1)C2CC(=O)O (stereo not drawn) [Compound 217]	429
Cc1cc2ccc1C(=O)N1CCc3ccc(cc3C1)C(CC(=O)O)c1cnc3c(nnn3CCCCCCO2)c1C (stereo not drawn) [Compound 218]	29.3
Cc1c2ccc3c1nnn3CCCCCc1cnc(c(F)c1)C(=O)N1CCc3ccc(cc3C1)C2CC(=O)O (stereo not drawn) [Compound 219]	228

test system: NQO1 activation in BEAS-2B cells; test: BEAS-2B cellular MTT assay of NQO1 activation, 0% HSA; format: cell-based; conditions: Homo sapiens, serum free, read-out: BEAS EC50 (nM) serum free
Summary of the method: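 For the 0% HSA condition, cells were seeded into collagen plates in HSA-free medium. Culture was BEAS-2B in BEBM plus BEGM SingleQuots lacking GA-1000, held under 70% confluence, at a seeding density reaching 95-100% confluence by 48 h.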

SMILES	EC50 [nM]
O=C(O)CC1c2ccc(nc2)OCCCCOc2cc(F)c(c(F)c2)C(=O)N2CCc3ccc1cc3C2 (stereo not drawn) [Compound 210]	482
O=C(O)CC1c2ccc(nc2)OCCCCOc2ccc(cc2Cl)C(=O)N2CCc3ccc1cc3C2 (stereo not drawn) [Compound 212]	190
O=C(O)CC1c2ccc3c(c2)CN(CC3)C(=O)c2ncc(cc2F)OCCCCCCn2nnc3c(Cl)c1ccc32 (stereo not drawn) [Compound 213]	118
O=C(O)CC1c2ccc3c(c2)CN(CC3)C(=O)c2ccc(cn2)OCCCCCCn2nnc3c(Cl)c1ccc32 (stereo not drawn) [Compound 214]	245
O=C(O)CC1c2ccc3c(c2)CN(CC3)C(=O)c2ncc(cc2F)CCCCCn2nnc3c(Cl)c1ccc32 (stereo not drawn) [Compound 215]	243
Cc1c2cnc3c1nnn3CCCCCCc1ccc(cc1)C(=O)N1CCc3ccc(cc3C1)C2CC(=O)O (stereo not drawn) [Compound 216]	1.8
Cc1c2ccc3c1nnn3CCCCCCOc1cnc(c(F)c1)C(=O)N1CCc3ccc(cc3C1)C2CC(=O)O (stereo not drawn) [Compound 217]	371
Cc1cc2ccc1C(=O)N1CCc3ccc(cc3C1)C(CC(=O)O)c1cnc3c(nnn3CCCCCCO2)c1C (stereo not drawn) [Compound 218]	27.5
Cc1c2ccc3c1nnn3CCCCCc1cnc(c(F)c1)C(=O)N1CCc3ccc(cc3C1)C2CC(=O)O (stereo not drawn) [Compound 219]	180

same assay, conditions: serum free, read-out: BEAS EC50 (nM) serum free

SMILES	EC50 [nM]
O=C(O)CC1c2ccc(nc2)OCCCCOc2cc(F)c(c(F)c2)C(=O)N2CCc3ccc1cc3C2 (stereo not drawn) [Compound 210]	475
O=C(O)CC1c2ccc(nc2)OCCCCOc2ccc(cc2Cl)C(=O)N2CCc3ccc1cc3C2 (stereo not drawn) [Compound 212]	254
O=C(O)CC1c2ccc3c(c2)CN(CC3)C(=O)c2ncc(cc2F)OCCCCCCn2nnc3c(Cl)c1ccc32 (stereo not drawn) [Compound 213]	98.4
O=C(O)CC1c2ccc3c(c2)CN(CC3)C(=O)c2ccc(cn2)OCCCCCCn2nnc3c(Cl)c1ccc32 (stereo not drawn) [Compound 214]	132
O=C(O)CC1c2ccc3c(c2)CN(CC3)C(=O)c2ncc(cc2F)CCCCCn2nnc3c(Cl)c1ccc32 (stereo not drawn) [Compound 215]	251
Cc1c2cnc3c1nnn3CCCCCCc1ccc(cc1)C(=O)N1CCc3ccc(cc3C1)C2CC(=O)O (stereo not drawn) [Compound 216]	2.5
Cc1c2ccc3c1nnn3CCCCCCOc1cnc(c(F)c1)C(=O)N1CCc3ccc(cc3C1)C2CC(=O)O (stereo not drawn) [Compound 217]	360
Cc1cc2ccc1C(=O)N1CCc3ccc(cc3C1)C(CC(=O)O)c1cnc3c(nnn3CCCCCCO2)c1C (stereo not drawn) [Compound 218]	39.7
Cc1c2ccc3c1nnn3CCCCCc1cnc(c(F)c1)C(=O)N1CCc3ccc(cc3C1)C2CC(=O)O (stereo not drawn) [Compound 219]	208
